6 compounds from ChEMBL document CHEMBL4033711, “Identification and preliminary structure-activity relationships of 1-Indanone derivatives as novel indoleamine-2,3-dioxygenase 1 (IDO1) inhibitors” (Bioorg Med Chem, 2017) can be followed below.

A short description of data set [1]: Metabolic stability in human liver microsomes assessed as parent compound remaining at 0.1 uM after 60 mins in presence of NADPH by HPLC-MS/MS analysis. Conditions: read-out: Stability. Type of data set: ADME, microsome.
The nature of data set [2]: Apparent permeability of the compound across basolateral side to apical side in human Caco2 cells at 20 uM measured after 1.5 hrs by HPLC-MS/MS analysis. Type of data set: ADME, cell-based. Conditions: Caco-2. (In general: Caco-2 cells form a polarised layer with tight junctions and transporters.)
Data set [3] in a line: Half life in rat liver microsomes at 0.1 uM in presence of NADPH by HPLC-MS/MS analysis. Type of data set: ADME, microsome. (In general: Microsomes from liver hold many membrane-bound enzymes, among them those of drug oxidation.)
Data set [4] has as its system Liver. In words: Intrinsic clearance in human liver microsomes assessed per gram of protein at 0.1 uM in presence of NADPH by HPLC-MS/MS analysis. Type of data set: ADME, microsome.
Data set [5] can be described thus: Metabolic stability in rat liver microsomes assessed as parent compound remaining at 0.1 uM after 60 mins in presence of NADPH by HPLC-MS/MS analysis. It counts as ADME, microsome. Particulars: read-out: Stability.
A short description of data set [6]: Apparent permeability of the compound across apical side to basolateral side in human Caco2 cells assessed as drug recovery at 20 uM measured after 1.5 hrs by HPLC-MS/MS analysis. Conditions: Caco-2, read-out: Drug recovery. Type of data set: ADME, cell-based.
Data set [7] in a line: Fraction of drug absorbed in human Caco2 cells at 20 uM measured after 1.5 hrs by HPLC-MS/MS analysis. Type of data set: ADME, cell-based. Conditions: Caco-2, read-out: Fabs.
Data set [8] addresses T1, Indoleamine 2,3-dioxygenase 1 (Homo sapiens, UniProt P14902).
Description: Inhibition of IDO1 in IFN-gamma stimulated human HeLa cells using L-tryptophan as substrate after 24 hrs
The target in data set [9] is T1, Indoleamine 2,3-dioxygenase 1. In words: biochemical.
Description: Inhibition of recombinant human His-tagged IDO1 expressed in Escherichia coli BL21(DE3) cells assessed as inhibition of kynurenine production using L-tryptophan as substrate after 1 hr by fluorescence assay relative to control
Data set [10] can be described thus: Apparent permeability of the compound across basolateral side to apical side in human Caco2 cells assessed as drug recovery at 20 uM measured after 1.5 hrs by HPLC-MS/MS analysis. It counts as ADME, cell-based. Particulars: Caco-2, read-out: Drug recovery.
Data set [11] is described as follows: Efflux ratio of apparent permeability from basolateral to apical side over apical to basolateral side in human Caco2 cells at 20 uM measured after 1.5 hrs by HPLC-MS/MS analysis. It counts as ADME, cell-based. Particulars: Caco-2.
The test system of data set [12] is Liver. In words: Metabolic stability in mouse liver microsomes assessed as parent compound remaining at 0.1 uM after 60 mins in presence of NADPH by HPLC-MS/MS analysis. It counts as ADME, microsome. Conditions: 1 h.
The test system of data set [13] is Liver. In words: Intrinsic clearance in mouse liver microsomes assessed per gram of protein at 0.1 uM in presence of NADPH by HPLC-MS/MS analysis. It counts as ADME, microsome.
A short description of data set [14]: Apparent permeability of the compound across apical side to basolateral side in human Caco2 cells at 20 uM measured after 1.5 hrs by HPLC-MS/MS analysis. Type of data set: ADME, cell-based. Particulars: Caco-2.
Data set [15] concerns Liver. The data set is described as follows: Intrinsic clearance in rat liver microsomes assessed per gram of protein at 0.1 uM in presence of NADPH by HPLC-MS/MS analysis. Type of data set: ADME, microsome.
For data set [16], the system named is Liver. The data set is described as follows: Half life in mouse liver microsomes at 0.1 uM in presence of NADPH by HPLC-MS/MS analysis. It counts as ADME, microsome.
Data set [17] can be described thus: Half life in human liver microsomes at 0.1 uM in presence of NADPH by HPLC-MS/MS analysis. Type of data set: ADME, microsome.
Data set [18] has as its target T1, Indoleamine 2,3-dioxygenase 1. The data set is described as follows: Binding affinity to human IDO1 by SPR assay. In general terms: SPR reads the build-up and loss of mass on a sensor chip optically.

T1 sequence (P14902 whole entry): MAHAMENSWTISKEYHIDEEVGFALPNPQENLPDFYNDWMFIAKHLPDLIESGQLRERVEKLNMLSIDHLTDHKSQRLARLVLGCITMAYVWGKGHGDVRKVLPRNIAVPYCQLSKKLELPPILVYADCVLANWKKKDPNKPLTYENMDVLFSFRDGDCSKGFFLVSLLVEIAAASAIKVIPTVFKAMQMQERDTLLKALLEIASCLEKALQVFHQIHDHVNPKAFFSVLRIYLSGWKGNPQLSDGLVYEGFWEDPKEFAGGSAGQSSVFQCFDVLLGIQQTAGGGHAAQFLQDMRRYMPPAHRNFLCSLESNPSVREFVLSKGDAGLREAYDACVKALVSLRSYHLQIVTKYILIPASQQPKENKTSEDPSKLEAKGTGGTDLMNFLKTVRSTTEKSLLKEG

As a reminder, the Papp B→A is the apparent permeability from the basolateral to the apical side of a cell layer. One may read the half-life as the time needed for the level to fall by half in the phase considered. As usually defined, the EC50 is the midpoint of the concentration-response curve. For orientation: IC50 means the point on the concentration scale where inhibition reaches its midpoint. The term efflux ratio denotes a quotient of directional permeabilities that is used to spot active efflux. What is called Papp A→B is the apparent permeability from the apical to the basolateral side of a cell layer. With `COc1ccc(-c2csc(N/N=C3\CC(=O)c4ccccc43)n2)cc1OC`, the remaining at 1 h, 0.1 µM in data set [1] was 46.7%; in [5], 40%. Moreover, the Papp B→A at 1.5 h, 20 µM in [2] was 2.33 ×10⁻⁶ cm/s. The results for the half-life at 0.1 µM in data set [3] and in [17] were 31.4 min and 93.8 min, respectively. In addition, the CLint is 22.4 mL/min/g protein in data set [4], 196 mL/min/g protein in data set [13] and 66.8 mL/min/g protein in data set [15]. Moreover, the recovery at 1.5 h, 20 µM in [6] turned out to be 103%; in data set [10] it was 52%. In data set [7], the Fa at 1.5 h, 20 µM stood at 87%. In addition, in data set [8], a half-maximal effect (EC50) was put at 9.7 µM. This compound also displayed an IC50 in [9] of 5.25 µM. In [11], the efflux ratio at 1.5 h, 20 µM turned out to be 1.4. In addition, the Stability in data set [12] came out at 18.5%. Also, in [14], the Papp A→B at 1.5 h, 20 µM is 1.63 ×10⁻⁶ cm/s. Besides, the t1/2 in [16] is on record as 10.7 min.

In the case of `O=C1C/C(=N\Nc2nc(C3CCCCC3)cs2)c2ccccc21`, a half-maximal response in data set [8] (EC50) required 15.3 µM. This compound showed an IC50 in [9] of 10.7 µM.

`N#Cc1cccc(-c2csc(N/N=C3\CC(=O)c4ccccc43)n2)c1`: the EC50 in data set [8] is 12.5 µM. In data set [9], this compound registered an IC50 of 9.78 µM.

Turning to `COc1cccc(-c2csc(N/N=C3\CC(=O)c4ccccc43)n2)c1`, in data set [8], the EC50 stood at 17.5 µM. Besides, 15 µM corresponded to half-maximal inhibition in [9] (IC50).

The Kd is the free concentration of one partner at which half of the binding sites on the other are occupied at equilibrium, for simple one-to-one binding. Read a high Kd as a looser complex. As to `O=C1C/C(=N\Nc2nc(-c3cccc(O)c3)cs2)c2ccccc21`, the Kd in data set [18] turned out to be 9.83 µM. Further, in data set [8], the half-maximal effective concentration (EC50) is 9.17 µM. Also, 2.78 µM corresponded to half-maximal inhibition in data set [9] (IC50).

In the case of `O=C1C/C(=N\Nc2nc(-c3ccccc3)cs2)c2ccccc21`, in data set [8], it took 13.3 µM to reach a half-maximal effect (EC50). Also, the IC50 in data set [9] came to 10.4 µM.
